Data published in patent US10702526B2, “Inhibitors of immune checkpoint modulators and related methods” (eFFECTOR Therapeutics, Inc., priority 2015, dated 2020).
“Also recorded” adds a separate entry of the source.

What was measured:
[1] = tested on: IL-2 production in Jurkat T cells; experiment: IL-2 ELISA on supernatants of activated Jurkat T cells; assay type: cell-based, human; details: Jurkat T cells with PHA and PMA, 48 hours
Description: To examine the effect of MNK-specific inhibitors on PD-1 expression, Jurkat cells (Clone E6.1, ATCC, transformed T cells) were used, which express PD-1 when activated through T cell receptor (TCR) signaling. Briefly, Jurkat cells were grown in 1×RPMI with 1× Pen/Strep, and 10% FBS, then about 3×10^6 Jurkat cells were activated in presence of 1 μg/mL PHA (Sigma) and 50 ng/mL PMA (Sigma). Test Cells were treated simultaneously with various concentrations of MNK-specific inhibitor Compound 107 (0, 0.01, 0.1, 1, 3 and 10 μM). After 48 hours, culture supernatants were harvested and examined via sandwich ELISA for the presence of IL-2 using human IL-2 ELISA DuoSet® (R&D Systems, Minneapolis, Minn.). […] After fixation, cells were washed twice with flow buffer and re-suspended in flow buffer and assessed for fluorescence using BD Accuri C6 flow cytometer. Data were analyzed using the C6 cytometer software (BD Biosciences, San Jose, Calif.).

[2] = tested on: PD-1 expression on human Pan-T cells; experiment: PD-1 expression on primary T cells activated with anti-CD3/anti-CD28 beads (flow cytometry); assay type: cell-based
Description: About 3×10^5 T cells were activated using anti-CD3/anti-CD28 magnetic beads as per manufacturer's protocol (Dynabeads®, Invitrogen, Carlsbad, Calif.). Briefly, a ratio of fresh primary T cells to beads used to activate the T cells was 1:1 (for every 80,000 T cells, 2 μl of beads were added). Test cells were treated simultaneously with various concentrations of MNK-specific inhibitor Compound 107 (0.01, 0.1, 1, 3 and 10 μM). After 48 hours, culture supernatants were harvested and examined via sandwich ELISA for the presence of IL-2 using human IL-2 ELISA DuoSet® (R&D Systems, Minneapolis, Minn.). […] After fixation, cells were washed twice with flow buffer and re-suspended in flow buffer and assessed for fluorescence using BD Accuri C6 cytometer. Data were analyzed using the C6 cytometer software (BD Biosciences, San Jose, Calif.).

[3] = tested on: CT26 (mouse colon carcinoma) tumor; experiment: CT26 colon carcinoma allograft tumor model in BALB/c mice; assay type: in vivo
Description: To evaluate the efficacy of a MNK-specific inhibitor in cancer, an in vivo allograft tumor model was used. Briefly, CT26 (mouse colon carcinoma) cells grown in DMEM supplemented with 10% FBS were harvested during exponential growth and counted for tumor inoculation in immune competent BALB/c mice. Each mouse was inoculated with 0.3×10^6 CT26 tumor cells in the right flank region in a 0.2 ml volume comprising a 1:1 ratio (volume to volume) of cells in growth media (0.1 ml) and Matrigel® matrix (0.1 ml) (BD Biosciences, San Jose Calif.). Tumors were allowed to grow to 100-200 mm^3 prior to study initiation. Before beginning treatment, all animals were weighed and tumor volumes measured using a caliper. Since the tumor volume can affect the effectiveness of any given treatment, mice were randomly assigned into vehicle and test article treatment groups after tumors had reached a similar size. Each study group contained 8 mice, with each group receiving one of the following treatments: (1) Compound 107 in 10% 1-methyl-2-pyrrolidinone and 90% propylene glycol and given at a dose of 1 mg/kg orally, once a day; (2) anti-PD1 (BioXcell, Lebanon, N.H.) in PBS and given at a dose of 0.5 mg/mouse intraperitoneally, once every four days (as described by Wei et al., PLoS One 8:e84927, 2013); (3) a combination of Compound 107 at 1 mg/kg orally, once a day and anti-PD1 at 0.5 mg/mouse intraperitoneally, once every four days; (4) vehicle only control.
During the study, tumor size (for subcutaneous implants) was measured in length and width with a caliper twice a week. The tumor volume was calculated by the formula L×W×W/2 according to NCI standards. Tumor growth inhibition (TGI %) is an indication of anti-tumor effectiveness, which is expressed as follows: TGI (%)=100×(1−(ΔT/ΔC)). ΔT and ΔC were the change in mean tumor volume of the treated and control groups, relative to mean tumor volume at the start of treatment. All experiments continued until group mean tumor volume reached about 2000 to 2,500 mm^3 in size. […] Also, the body weight for each mouse was collected at least once prior to the study start, and twice a week during the study. Body weight change is an indication of tolerability, so percent body weight change is calculated as follows: body weight change (%)=100×(body weightend−body weightstart)/body weightstart. Mice were also observed daily for mortality, mobility, hunched posture, piloerection, or other signs of distress while dosing. If a mouse lost greater than 20% body weight due to toxicity, or the combination of toxicity and tumor burden, it was euthanized. If there was apparent toxicity, the mice were taken off treatment and clinical observation and body weight measurement were done daily.

[4] = 15 days after initiation of dosing
[5] = 22 days after initiation of dosing

Cc1cc(Nc2cc(N)ncn2)c(=O)n2c1C(=O)NC21CCCCC1.Cl [Compound 107]
IL-2 production [1]: did not alter cytokine production; also recorded: did not detectably alter IL-2 production | maximum inhibition of PD-1 expression ([2]; T cells activated with anti-CD3/anti-CD28 beads, 10 μM, 48 hours): 76% | PD-1 expression ([2]; primary T cells, anti-CD3/anti-CD28 beads, 0.01-10 μM): reduced in a dose dependent manner | Mean Tumor Volume (mm^3) ± SEM [3, 4]: 522.3 ± 174.4; mm^3 | Tumor Growth Inhibition (% TGI) [3, 4]: about 34% | Tumor Growth Inhibition (% TGI) ([3]; 15 days after initiation of dosing, listed as Cmpd 107): 34% | Mean Tumor Volume (mm^3) ± SEM [3, 5]: 1260.8 ± 499.1 mm^3 | Tumor Growth Inhibition (% TGI) [3, 5]: about 55% | Tumor Growth Inhibition (% TGI) ([3]; 22 days after initiation of dosing, listed as Cmpd 107): 54% | Body Weight Change Average % ([3]; final day of study (day 22)): 13.9%
